These results are taken from patent US10822374B2, “Cancer therapies and diagnostics” (Dana-Farber Cancer Institute, Inc., priority 2010, dated 2020).

The subject of series [1] is RKO or SJSA-1 cancer cells. As to the kind of experiment: Cell viability assays, RKO or SJSA-1 cancer cells. The class given is cell-based.
A further series relates to SJSA-1 cells. As to the kind of experiment: CellTiter-Glo viability, SJSA-1. The class given is cell-based, human. Particulars: SJSA-1 (HDM2++/HDMX−), 24 h. How it is done: (§1) All viability assays were performed in at least triplicate.
Background: In ATP-based viability assays light output follows the ATP content of the culture.

Series [2] deals with SJSA-X cells. Put plainly: CellTiter-Glo viability, SJSA-X. Particulars: SJSA-X (HDM2++/HDMX++), 24 h. The class given is cell-based, human. How it is done:
as §1

Series [3] has as its system JEG-3 cells. Put plainly: CellTiter-Glo viability, JEG-3. The class given is cell-based, human. As to conditions: JEG-3 (HDM2−/HDMX++), 24 h. Here is the method:
as §1

In a further series the test system is MCF-7 cells. As to the kind of experiment: CellTiter-Glo viability, MCF-7. It is filed as cell-based, human. As to conditions: MCF-7 (HDM2+/HDMX+), 24 h. How it is done:
as §1

A further series relates to HCT116 cells. Put plainly: CellTiter-Glo viability, HCT116. It is filed as cell-based, human. As to conditions: HCT116 (HDM2+/HDMX+), 24 h. How it is done:
as §1

In series [4] the test system is HCT116 cells deficient in p53. Put plainly: CellTiter-Glo viability, HCT116 deficient in p53. It is filed as cell-based, human. As to conditions: HCT116 with genetic deletion of p53, 24 h. How it is done:
(§2) Finally, WS1 normal human fibroblasts were tested to evaluate relative toxicity in tumor versus non-transformed cells.
(§3) Cultured cells were maintained in the appropriate media (SJSA-1, SJSA-X, SJSA-DD, A431 (DMEM); JEG-3, MCF-7, WS1 (EMEM); HCT116 (McCoy's 5A)) supplemented with fetal calf serum and penicillin/streptomycin. […] Viability was assayed by addition of CellTiter-Glo™ chemiluminescence reagent according to the manufacturer's protocol (Promega). Luminescence was measured using a Spectramax M5 microplate reader (Molecular Devices). […] All viability assays were performed in at least triplicate.

The test system of another series is SJSA-DD cells. As to the kind of experiment: CellTiter-Glo viability, SJSA-DD. It is filed as cell-based, human. As to conditions: SJSA-1 overexpressing dominant negative p53 (SJSA-DD), 24 h. How it is done: as §2, §3
Series [5] deals with bearing the R273H p53 mutation. As to the kind of experiment: CellTiter-Glo viability, A431. The class given is cell-based, human. As to conditions: A431, inactivating p53 point mutation, 24 h. Here is the method:
as §2, §3

The subject of series [6] is p53. Put plainly: p53 western of JEG-3 cellular extracts (input). It is filed as cell-based, human. Particulars: JEG-3, 20 μM, 6 hours. Here is the method: ; Bethyl Laboratories) and western analysis of electrophoresed protein was conducted using p53 (DO-1; EMD Chemicals or FL-393; Santa Cruz Biotechnology), HDMX (MDMX-82; Abcam), and HAUSP (anti-USP7, Bethyl Labs) antibodies, and Western Lightning chemiluminescence reagent (PerkinElmer). […]

For series [7], the system named is JEG-3 cells. Put plainly: Caspase-3/7 activation in JEG-3 cells. As to conditions: JEG-3, 0.3-10 μM, 12 h. The class given is cell-based, human. How it is done: Apoptosis studies were performed as follows.
In the next series the test system is JEG-3 xenografts. Put plainly: JEG-3 murine xenograft tumor growth. Particulars: 10 mg/kg i.v. once daily for 4 days.
A further series relates to HDM2, p21, and MIC-1. As to the kind of experiment: qPCR of p53 targets in excised JEG-3 tumors. Particulars: tumors excised day 5. On the technique in general: Real-time PCR tracks product formation cycle by cycle.
For series [8], the system named is p53 transcriptional targets HDM2, p21, MIC-1. Put plainly: qPCR of p53 transcriptional targets in JEG-3 cells. As to conditions: JEG-3, 20 μM, 6 h.
Description: qPCR studies were performed as follows. […] Total RNA was reverse transcribed to cDNA using Superscript III reverse transcriptase (Invitrogen). The derived cDNA was employed as the substrate to measure relative transcript levels by qRT-PCR on a PRISM 7700 system using SYBR Green PCR Master Mix (Applied Biosystems). Primers specific for HDM2, p21, MIC-1, and the UBB control were employed. Triplicate reactions were prepared in 96-well optical PCR plates.
The next series can be described thus: Proteolytic stability. It is filed as in vitro ADME. The source says:
The amide bond of the peptide backbone is susceptible to hydrolysis by proteases, thereby rendering peptidic compounds vulnerable to rapid degradation in vivo. Peptide helix formation, however, typically buries the amide backbone and therefore may shield it from proteolytic cleavage. The peptidomimetic macrocycles of the present invention may be subjected to in vitro trypsin proteolysis to assess for any change in degradation rate compared to a corresponding uncrosslinked polypeptide. For example, the peptidomimetic macrocycle and a corresponding uncrosslinked polypeptide are incubated with trypsin agarose and the reactions quenched at various time points by centrifugation and subsequent HPLC injection to quantitate the residual substrate by ultraviolet absorption at 280 nm. Briefly, the peptidomimetic macrocycle and peptidomimetic precursor (5 mcg) are incubated with trypsin agarose (Pierce) (S/E~125) for 0, 10, 20, 90, and 180 minutes. Reactions are quenched by tabletop centrifugation at high speed; remaining substrate in the isolated supernatant is quantified by HPLC-based peak detection at 280 nm.

The test system of series [9] is WS1 normal human fibroblasts. Put plainly: CellTiter-Glo viability, WS1 fibroblasts. How it is done:
as §2, §3

For series [10], the system named is p53. Put plainly: p53 western in MCF-7 cells. It is filed as cell-based, human. As to conditions: MCF-7, 20 μM. How it is done:
FIG. 8 is an image of an immunoblot showing that pharmacologic induction of p53-HDMX complexes sensitizes Nutlin-3-resistant cancer cells to HDMX inhibition. […]. Cells were exposed to MG-132 at 10 μM for 6 hours to induce HDMX-p53 complex formation. Cellular extracts (input-left side immunoblot) and anti-HDMX immunoprecipitates (IP:HDMX-right side immunoblot) were analyzed by SDS-PAGE and Western blotting. Levels of p53 and HAUSP are shown.

A further series concerns the target T1, HDM2 (Homo sapiens, UniProt Q00987).
T1 construct: endogenous in cells; host or cells: SJSA-X (derivative of SJSA-1 osteosarcoma)
As to the kind of experiment: Anti-FITC pull down in SJSA-X cells, HDM2 western. Particulars: 15 μM, 12 hours. The class given is cell-based.

The target of the next series is T2, HDMX (Homo sapiens, UniProt O15151).
T2 construct: expressed in transfected cells; host or cells: SJSA-X (SJSA-1 engineered to overexpress HDMX)
T2 sequence (O15151 1-490): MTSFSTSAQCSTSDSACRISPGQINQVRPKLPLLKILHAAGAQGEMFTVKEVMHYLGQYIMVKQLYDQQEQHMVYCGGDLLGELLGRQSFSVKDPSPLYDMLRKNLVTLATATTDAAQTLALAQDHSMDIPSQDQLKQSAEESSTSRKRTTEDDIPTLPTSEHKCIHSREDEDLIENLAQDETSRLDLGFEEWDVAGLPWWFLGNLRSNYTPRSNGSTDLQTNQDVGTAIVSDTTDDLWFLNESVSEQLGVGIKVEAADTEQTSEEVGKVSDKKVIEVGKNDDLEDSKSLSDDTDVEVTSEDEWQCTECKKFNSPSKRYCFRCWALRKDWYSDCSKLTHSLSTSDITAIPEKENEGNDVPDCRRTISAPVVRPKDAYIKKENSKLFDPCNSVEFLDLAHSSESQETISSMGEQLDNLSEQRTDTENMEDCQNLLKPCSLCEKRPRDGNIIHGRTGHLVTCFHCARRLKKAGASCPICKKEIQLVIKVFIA
As to the kind of experiment: Anti-FITC pull down in SJSA-X cells, HDMX western. As to conditions: 15 μM, 12 hours. The class given is cell-based.

Series [11] deals with SJSA-X cells. As to the kind of experiment: FITC-peptide detection in SJSA-X cellular lysates (cell penetration). As to conditions: 12 hours. Here is the method: Cells were then lysed and anti-FITC pull down was performed, followed by HDM2 and HDMX western analyses.
A further series addresses T3, full-length HDMX (Homo sapiens, UniProt O15151).
T3 construct: plasmid encoding full-length HDMX with N-terminal thioredoxin, S, and hexahistidine tags; thioredoxin (N, cleaved yes); S-tag (N, cleaved yes); hexahistidine (N, cleaved yes); made in house; host or cells: Escherichia coli BL21 (DE3) pLysS, pET32-LIC vector
T3 sequence (O15151 1-490): T2 sequence (O15151 1-490)
As to the kind of experiment: Fluorescence polarization direct binding to HDMX. Particulars: FITC-labeled peptides, same dose ranges. How it is done: Fluorescence polarization was then measured at equilibrium on a SpectraMax M5 microplate reader (Molecular Devices).
In general terms: Polarisation of emitted light reports the rotation of a fluorescent probe.

Entries after “also recorded” stand apart in the source; their conditions may differ. Read-outs that look alike come from different tables or passages of the source. Positions of bridges follow the written chain, without caps; N, C: chain ends. Non-standard residues stand in square brackets, D forms with d. No end group written: not given here. R8 = C=CCCCCCC[C@@](C)(N)C(=O)O; S5 = C=CCCC[C@](C)(N)C(=O)O

T1 sequence (Q00987 whole entry): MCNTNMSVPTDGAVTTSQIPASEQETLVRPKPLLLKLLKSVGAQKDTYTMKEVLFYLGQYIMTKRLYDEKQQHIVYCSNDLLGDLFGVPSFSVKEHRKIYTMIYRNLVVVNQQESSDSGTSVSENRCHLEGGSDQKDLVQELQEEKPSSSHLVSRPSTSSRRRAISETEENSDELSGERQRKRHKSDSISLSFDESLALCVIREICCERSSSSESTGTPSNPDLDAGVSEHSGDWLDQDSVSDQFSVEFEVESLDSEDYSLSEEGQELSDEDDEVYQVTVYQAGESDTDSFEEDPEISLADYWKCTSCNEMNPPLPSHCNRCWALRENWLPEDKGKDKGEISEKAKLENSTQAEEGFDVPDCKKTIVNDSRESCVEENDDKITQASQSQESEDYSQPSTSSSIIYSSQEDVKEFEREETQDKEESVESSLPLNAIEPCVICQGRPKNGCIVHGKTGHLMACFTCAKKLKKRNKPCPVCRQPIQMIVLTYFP

On to “SAH-p53-8: i, i+7 hydrocarbon-stapled p53 transactivation domain peptide (SEQ ID NO: 10), S20 and P27 replaced with olefinic residues”, for which the cell viability result is reported as “promoted cell death” in series [1]; “dose-dependent inhibition of cell viability” with SJSA-1 cells; “dose-dependent inhibition of cell viability; also recorded: restoring susceptibility” in the series on SJSA-X cells [2]; “dose-dependent inhibition of cell viability; also recorded: most sensitive” with JEG-3 cells [3]; “dose-dependent inhibition of cell viability” with MCF-7 cells; “dose-dependent inhibition of cell viability” in the series with HCT116 cells. Also, the cell viability entry is reported as “completely insensitive” in series [4], “completely insensitive” in the series with SJSA-DD cells and “similarly unaffected” in [5]. Moreover, the p53 levels result in the series with p53 [6] was “increase in p53 levels”. Besides, the caspase-3/7 activation entry in the series with JEG-3 cells [7] is reported as “dose-responsive activation of caspase-3/7”. Moreover, the tumor growth result in the series with JEG-3 xenografts is “significantly suppressed tumor growth”. The “reduction in tumor burden compared to vehicle and Nutlin-3” value in the series with JEG-3 xenografts (5-day evaluation) is 37-46%. In addition, the “transcriptional activation of HDM2, p21, and MIC-1 in tumors” value in the series with HDM2, p21, and MIC-1 is recorded as “statistically significant transcriptional activation”. The “upregulation of p53 transcriptional targets (mRNA) compared to vehicle” value in [8] is on record as 5-14 fold.

Turning to `CC(=O)N[C@@H](CC(C)C)C(=O)N[C@@H](CO)C(=O)N[C@@H](CCC(N)=O)C(=O)N[C@@H](CCC(=O)O)C(=O)N[C@H](C(=O)N[C@@H](Cc1ccccc1)C(=O)N[C@]1(C)CCCCCCC=CCCC[C@@](C)(C(=O)N[C@@H](CCC(=O)O)C(=O)N[C@@H](CC(N)=O)C(N)=O)NC(=O)[C@H](CC(C)C)NC(=O)[C@H](CC(C)C)NC(=O)[C@H](CCCCN)NC(=O)[C@H](Cc2c[nH]c3ccccc23)NC(=O)[C@H](CC(C)C)NC(=O)[C@H](CC(=O)O)NC1=O)[C@@H](C)O` [SAH-p53-4], the proteolytic stability entry in “Proteolytic stability” is recorded as “improved proteolytic stability”.

Take `COc1ccc(C2=N[C@@H](c3ccc(Cl)cc3)[C@@H](c3ccc(Cl)cc3)N2C(=O)N2CCNC(=O)C2)c(OC(C)C)c1` [Nutlin-3, reference compound]: the cell viability entry is “very sensitive” with SJSA-1 cells; “little to no response; also recorded: ineffective as a single agent” in the series on SJSA-X cells [2]; “little to no response; also recorded: most resistant” in the series with JEG-3 cells [3]; “modestly sensitive” with MCF-7 cells; “modestly sensitive” in the series with HCT116 cells; “completely insensitive” in the series with SJSA-DD cells. For the same molecule, in series [9] (WS1, 24 h), the “viability of normal human fibroblasts” value was “no impact”. In addition, the p53 levels result with p53 [6] is recorded as “increase in p53 levels”; in the series with p53 [10], “elevate p53 levels”. In addition, the caspase-3/7 activation result in the series with JEG-3 cells [7] is listed as “little effect”. Also, the tumor growth result in the series on JEG-3 xenografts is given as “not affected”. Also, in [8], the “upregulation of p53 transcriptional targets (mRNA) compared to vehicle” value is 1.5-4 fold.

In the case of `CC(C)C[C@@H]1NC(=O)[C@H](CCCNC(=N)N)NC(=O)[C@H](Cc2c[nH]c3ccccc23)NC(=O)[C@H](CC(C)C)NC(=O)[C@H](CC(N)=O)NC(=O)[C@](C)(NC(=O)[C@H](Cc2ccccc2)NC(=O)[C@@H](NC(=O)[C@H](CCC(N)=O)NC(=O)[C@H](CCC(N)=O)NC(=O)[C@H](CO)NC(=O)[C@H](CCC(N)=O)NC(=O)CCNC(=S)Nc2ccc3c(c2)C(=O)OC32c3ccc(O)cc3Oc3cc(O)ccc32)[C@@H](C)O)CCCCCCC=CCCC[C@@](C)(C(=O)N[C@@H](CCC(N)=O)C(=O)N[C@@H](CC(N)=O)C(N)=O)NC(=O)[C@H](CC(C)C)NC1=O` [FITC-SAH-p53-8], the “co-immunoprecipitation of native HDM2” value on HDM2 was “specifically co-immunoprecipitated”. In addition, the “co-immunoprecipitation of native HDMX” value on HDMX is “specifically co-immunoprecipitated”. Also, the “penetration of intact SJSA-X cells” value with SJSA-X cells [11] is on record as “efficiently penetrated intact SJSA-X cells”.

As to “SAH-p53-8F19A: negative control peptide: SAH-p53-8 with F19 substituted by alanine (SEQ ID NO: 13) (QSQQTA[R8]NLWRLL[S5]QN; staple 7-14)”, the “interaction with HDMX” value with full-length HDMX is given as “no interaction”. The cell viability result (in the series on SJSA-1 cells; with SJSA-X cells [2]; in the series with JEG-3 cells [3]; in the series on MCF-7 cells; in the series on HCT116 cells; in [4]) was “inactive” throughout. The cell viability entry (in the series on SJSA-DD cells; in series [5]) was “inactive” throughout. Further, in series [9], the “viability of normal human fibroblasts” value was “inactive”.
